Laboratory results: patent publication US8741944B2, “Anti-infective agents against intracellular pathogens” (priority 2007, dated 2014)
Like-named read-outs stand apart in the source and are kept apart here.

What was measured:
SR (Leukemia) = assay: NCI DTP tumor cell line screen (SRB), SR
Procedure: (§1) For a typical screening experiment, cells are inoculated into 96 well microtiter plates in 100 μL at plating densities ranging from 5,000 to 40,000 cells/well depending on the doubling time of individual cell lines. After cell inoculation, the microtiter plates are incubated at 37° C., 5% CO2, 95% air and 100% relative humidity for 24 h prior to addition of experimental drugs.
(§2) After 24 h, two plates of each cell line are fixed in situ with TCA, to represent a measurement of the cell population for each cell line at the time of drug addition (Tz). Experimental drugs are solubilized in dimethyl sulfoxide at 400-fold the desired final maximum test concentration and stored frozen prior to use. At the time of drug addition, an aliquot of frozen concentrate is thawed and diluted to twice the desired final maximum test concentration with complete medium containing 50 μg/ml gentamicin. Additional four, 10-fold or ½ log serial dilutions are made to provide a total of five drug concentrations plus control. Aliquots of 100 μl of these different drug dilutions are added to the appropriate microtiter wells already containing 100 μl of medium, resulting in the required final drug concentrations.
(§3) Following drug addition, the plates are incubated for an additional 48 h at 37° C., 5% CO2, 95% air, and 100% relative humidity. For adherent cells, the assay is terminated by the addition of cold TCA. Cells are fixed in situ by the gentle addition of 50 μl of cold 50% (w/v) TCA (final concentration, 10% TCA) and incubated for 60 minutes at 4° C. The supernatant is discarded, and the plates are washed five times with tap water and air dried. Sulforhodamine B (SRB) solution (1001) at 0.4% (w/v) in 1% acetic acid is added to each well, and plates are incubated for 10 minutes at room temperature. After staining, unbound dye is removed by washing five times with 1% acetic acid and the plates are air dried. Bound stain is subsequently solubilized with 10 mM trizma base, and the absorbance is read on an automated plate reader at a wavelength of 515 nm. For suspension cells, the methodology is the same except that the assay is terminated by fixing settled cells at the bottom of the wells by gently adding 50 μl of 80% TCA (final concentration, 16% TCA). Using the seven absorbance measurements [time zero, (Tz), control growth, (C), and test growth in the presence of drug at the five concentration levels (Ti)], the percentage growth is calculated at each of the drug concentrations levels. Percentage growth inhibition is calculated as: [(Ti−Tz)/(C−Tz)]×100 for concentrations for which Ti>/=Tz [(Ti−Tz)/Tz]×100 for concentrations for which Ti<Tz
(§4) Three dose response parameters are calculated for each experimental agent. […] The drug concentration resulting in total growth inhibition (TGI) is calculated from Ti=Tz. […] Values are calculated for each of these three parameters if the level of activity is reached; however, if the effect is not reached or is exceeded, the value for that parameter is expressed as greater or less than the maximum or minimum concentration tested.

A498 (Renal Cancer) = assay: NCI DTP tumor cell line screen (SRB), A498
Procedure: as §1, §2, §3, §4

MCF7 (Breast Cancer) = assay: NCI DTP tumor cell line screen (SRB), MCF7; conditions: MCF7
Procedure: as §1, §2, §3, §4

K-562 (Leukemia) = assay: NCI DTP tumor cell line screen (SRB), K-562
Procedure: as §1, §2, §3, §4

SN12C (Renal Cancer) = assay: NCI DTP tumor cell line screen (SRB), SN12C
Procedure: as §1, §2, §3, §4

MOLT-4 (Leukemia) = assay: NCI DTP tumor cell line screen (SRB), MOLT-4
Procedure: as §1, §2, §3, §4

[1] = test system: HOP-92 (Non-Small Cell Lung Cancer); assay: NCI DTP tumor cell line screen (SRB), HOP-92
Procedure: as §1, §2, §3, §4

HCT-15 (Colon Cancer) = assay: NCI DTP tumor cell line screen (SRB), HCT-15; conditions: HCT-15
Procedure: as §1, §2, §3, §4

OVCAR-3 (Ovarian Cancer) = assay: NCI DTP tumor cell line screen (SRB), OVCAR-3
Procedure: as §1, §2, §3, §4

OVCAR-8 (Ovarian Cancer) = assay: NCI DTP tumor cell line screen (SRB), OVCAR-8; conditions: OVCAR-8
Procedure: as §1, §2, §3, §4

HS 578T (Breast Cancer) = assay: NCI DTP tumor cell line screen (SRB), HS 578T
Procedure: as §1, §2, §3, §4

CCRF-CEM (Leukemia) = assay: NCI DTP tumor cell line screen (SRB), CCRF-CEM
Procedure: as §1, §2, §3, §4

[2] = test system: NCI-H522 (Non-Small Cell Lung Cancer)
Procedure: as §1, §2, §3, §4

LOX IMVI (Melanoma) = assay: NCI DTP tumor cell line screen (SRB), LOX IMVI
Procedure: as §1, §2, §3, §4

MALME-3M (Melanoma) = assay: NCI DTP tumor cell line screen (SRB), MALME-3M
Procedure: as §1, §2, §3, §4

SK-MEL-28 (Melanoma) = assay: NCI DTP tumor cell line screen (SRB), SK-MEL-28
Procedure: as §1, §2, §3, §4

NCC(=O)Nc1ccc(-n2nc(C(F)(F)F)cc2-c2ccc3c(ccc4ccccc43)c2)cc1 [Compound 70, 2-Amino-N-{4-[5-(2-phenanthrenyl)-3-(trifluoromethyl)-1H-pyrazol-1-yl]-phenyl}-acetamide]
TGI (SR (Leukemia)): 4.17E−06 | Mean Optical Densities (SR (Leukemia); Log10 Concentration −4.0): 0.363 | Mean Optical Densities (SR (Leukemia); Log10 Concentration −5.0): 0.265 | Percent Growth (SR (Leukemia); Log10 Concentration −5.0): −27% | Mean Optical Densities (SR (Leukemia); Log10 Concentration −6.0): 0.605 | Percent Growth (SR (Leukemia); Log10 Concentration −6.0): 45% | Mean Optical Densities (SR (Leukemia); Log10 Concentration −7.0): 0.796 | Percent Growth (SR (Leukemia); Log10 Concentration −7.0): 80% | Mean Optical Densities (SR (Leukemia); Log10 Concentration −8.0): 0.816 | Percent Growth (SR (Leukemia); Log10 Concentration −8.0): 84% | TGI (A498 (Renal Cancer)): 5.75E−06 | Mean Optical Densities (A498 (Renal Cancer); Log10 Concentration −4.0): 0.433 | Mean Optical Densities (A498 (Renal Cancer); Log10 Concentration −5.0): 0.660 | Percent Growth (A498 (Renal Cancer); Log10 Concentration −5.0): −30% | Mean Optical Densities (A498 (Renal Cancer); Log10 Concentration −6.0): 2.201 | Percent Growth (A498 (Renal Cancer); Log10 Concentration −6.0): 95% | Mean Optical Densities (A498 (Renal Cancer); Log10 Concentration −7.0): 2.598 | Percent Growth (A498 (Renal Cancer); Log10 Concentration −7.0): 126% | Mean Optical Densities (A498 (Renal Cancer); Log10 Concentration −8.0): 2.230 | Percent Growth (A498 (Renal Cancer); Log10 Concentration −8.0): 98% | TGI (MCF7 (Breast Cancer)): 2.72E−06 | Mean Optical Densities (MCF7 (Breast Cancer); Log10 Concentration −4.0): 0.255 | Mean Optical Densities (MCF7 (Breast Cancer); Log10 Concentration −5.0): 0.196 | Mean Optical Densities (MCF7 (Breast Cancer); Log10 Concentration −6.0): 0.982 | Mean Optical Densities (MCF7 (Breast Cancer); Log10 Concentration −7.0): 1.541 | Mean Optical Densities (MCF7 (Breast Cancer); Log10 Concentration −8.0): 1.566 | TGI (K-562 (Leukemia)): 3.34E−06 | Mean Optical Densities (K-562 (Leukemia); Log10 Concentration −4.0): 0.247 | Mean Optical Densities (K-562 (Leukemia); Log10 Concentration −5.0): 0.209 | Percent Growth (K-562 (Leukemia); Log10 Concentration −5.0): −30% | Mean Optical Densities (K-562 (Leukemia); Log10 Concentration −6.0): 0.681 | Percent Growth (K-562 (Leukemia); Log10 Concentration −6.0): 33% | Mean Optical Densities (K-562 (Leukemia); Log10 Concentration −7.0): 1.022 | Percent Growth (K-562 (Leukemia); Log10 Concentration −7.0): 62% | Mean Optical Densities (K-562 (Leukemia); Log10 Concentration −8.0): 1.435 | Percent Growth (K-562 (Leukemia); Log10 Concentration −8.0): 97% | TGI (SN12C (Renal Cancer)): 3.51E−06 | Mean Optical Densities (SN12C (Renal Cancer); Log10 Concentration −4.0): 0.308 | Mean Optical Densities (SN12C (Renal Cancer); Log10 Concentration −5.0): 0.203 | Percent Growth (SN12C (Renal Cancer); Log10 Concentration −5.0): −65% | Mean Optical Densities (SN12C (Renal Cancer); Log10 Concentration −6.0): 1.093 | Percent Growth (SN12C (Renal Cancer); Log10 Concentration −6.0): 78% | Mean Optical Densities (SN12C (Renal Cancer); Log10 Concentration −7.0): 1.194 | Percent Growth (SN12C (Renal Cancer); Log10 Concentration −7.0): 94% | Mean Optical Densities (SN12C (Renal Cancer); Log10 Concentration −8.0): 1.209 | Percent Growth (SN12C (Renal Cancer); Log10 Concentration −8.0): 96% | TGI (MOLT-4 (Leukemia)): 3.10E−06 | Mean Optical Densities (MOLT-4 (Leukemia); Log10 Concentration −4.0): 0.296 | Mean Optical Densities (MOLT-4 (Leukemia); Log10 Concentration −5.0): 0.180 | Percent Growth (MOLT-4 (Leukemia); Log10 Concentration −5.0): −42% | Mean Optical Densities (MOLT-4 (Leukemia); Log10 Concentration −6.0): 0.614 | Percent Growth (MOLT-4 (Leukemia); Log10 Concentration −6.0): 41% | Mean Optical Densities (MOLT-4 (Leukemia); Log10 Concentration −7.0): 0.951 | Percent Growth (MOLT-4 (Leukemia); Log10 Concentration −7.0): 87% | Mean Optical Densities (MOLT-4 (Leukemia); Log10 Concentration −8.0): 0.964 | Percent Growth (MOLT-4 (Leukemia); Log10 Concentration −8.0): 89% | TGI [1]: 3.07E−06 | Mean Optical Densities ([1]; Log10 Concentration −4.0): 0.267 | Mean Optical Densities ([1]; Log10 Concentration −5.0): 0.095 | Percent Growth ([1]; Log10 Concentration −5.0): −91% | Mean Optical Densities ([1]; Log10 Concentration −6.0): 1.465 | Percent Growth ([1]; Log10 Concentration −6.0): 87% | Mean Optical Densities ([1]; Log10 Concentration −7.0): 1.474 | Percent Growth ([1]; Log10 Concentration −7.0): 89% | Mean Optical Densities ([1]; Log10 Concentration −8.0): 1.509 | Percent Growth ([1]; Log10 Concentration −8.0): 96% | TGI (HCT-15 (Colon Cancer)): 3.19E−06 | Mean Optical Densities (HCT-15 (Colon Cancer); Log10 Concentration −5.0): 0.149 | Percent Growth (HCT-15 (Colon Cancer); Log10 Concentration −5.0): −47% | Mean Optical Densities (HCT-15 (Colon Cancer); Log10 Concentration −6.0): 0.561 | Percent Growth (HCT-15 (Colon Cancer); Log10 Concentration −6.0): 47% | Mean Optical Densities (HCT-15 (Colon Cancer); Log10 Concentration −7.0): 0.599 | Percent Growth (HCT-15 (Colon Cancer); Log10 Concentration −7.0): 54% | Mean Optical Densities (HCT-15 (Colon Cancer); Log10 Concentration −8.0): 0.760 | Percent Growth (HCT-15 (Colon Cancer); Log10 Concentration −8.0): 81% | TGI (OVCAR-3 (Ovarian Cancer)): 3.32E−06 | Mean Optical Densities (OVCAR-3 (Ovarian Cancer); Log10 Concentration −4.0): 0.301 | Mean Optical Densities (OVCAR-3 (Ovarian Cancer); Log10 Concentration −5.0): 0.140 | Percent Growth (OVCAR-3 (Ovarian Cancer); Log10 Concentration −5.0): −70% | Mean Optical Densities (OVCAR-3 (Ovarian Cancer); Log10 Concentration −6.0): 0.816 | Percent Growth (OVCAR-3 (Ovarian Cancer); Log10 Concentration −6.0): 76% | Mean Optical Densities (OVCAR-3 (Ovarian Cancer); Log10 Concentration −7.0): 0.849 | Percent Growth (OVCAR-3 (Ovarian Cancer); Log10 Concentration −7.0): 83% | Mean Optical Densities (OVCAR-3 (Ovarian Cancer); Log10 Concentration −8.0): 0.879 | Percent Growth (OVCAR-3 (Ovarian Cancer); Log10 Concentration −8.0): 89% | TGI (OVCAR-8 (Ovarian Cancer)): 4.05E−06 | Mean Optical Densities (OVCAR-8 (Ovarian Cancer); Log10 Concentration −4.0): 0.306 | Mean Optical Densities (OVCAR-8 (Ovarian Cancer); Log10 Concentration −5.0): 0.269 | Percent Growth (OVCAR-8 (Ovarian Cancer); Log10 Concentration −5.0): −33% | Mean Optical Densities (OVCAR-8 (Ovarian Cancer); Log10 Concentration −6.0): 0.755 | Percent Growth (OVCAR-8 (Ovarian Cancer); Log10 Concentration −6.0): 51% | Mean Optical Densities (OVCAR-8 (Ovarian Cancer); Log10 Concentration −7.0): 1.114 | Percent Growth (OVCAR-8 (Ovarian Cancer); Log10 Concentration −7.0): 102% | Mean Optical Densities (OVCAR-8 (Ovarian Cancer); Log10 Concentration −8.0): 1.078 | Percent Growth (OVCAR-8 (Ovarian Cancer); Log10 Concentration −8.0): 97% | TGI (HS 578T (Breast Cancer)): 5.25E−06 | Mean Optical Densities (HS 578T (Breast Cancer); Log10 Concentration −4.0): 0.333 | Mean Optical Densities (HS 578T (Breast Cancer); Log10 Concentration −5.0): 0.351 | Mean Optical Densities (HS 578T (Breast Cancer); Log10 Concentration −6.0): 1.110 | Mean Optical Densities (HS 578T (Breast Cancer); Log10 Concentration −7.0): 1.179 | Mean Optical Densities (HS 578T (Breast Cancer); Log10 Concentration −8.0): 1.221 | TGI (CCRF-CEM (Leukemia)): 2.49E−06 | Mean Optical Densities (CCRF-CEM (Leukemia); Log10 Concentration −4.0): 0.194 | Mean Optical Densities (CCRF-CEM (Leukemia); Log10 Concentration −5.0): 0.168 | Percent Growth (CCRF-CEM (Leukemia); Log10 Concentration −5.0): −43% | Mean Optical Densities (CCRF-CEM (Leukemia); Log10 Concentration −6.0): 0.523 | Percent Growth (CCRF-CEM (Leukemia); Log10 Concentration −6.0): 28% | Mean Optical Densities (CCRF-CEM (Leukemia); Log10 Concentration −7.0): 0.946 | Percent Growth (CCRF-CEM (Leukemia); Log10 Concentration −7.0): 81% | Percent Growth (CCRF-CEM (Leukemia); Log10 Concentration −8.0): 74% | TGI [2]: 3.94E−06 | Mean Optical Densities ([2]; Log10 Concentration −4.0): 0.486 | Mean Optical Densities ([2]; Log10 Concentration −5.0): 0.260 | Percent Growth ([2]; Log10 Concentration −5.0): −66% | Mean Optical Densities ([2]; Log10 Concentration −6.0): 1.528 | Percent Growth ([2]; Log10 Concentration −6.0): 97% | Mean Optical Densities ([2]; Log10 Concentration −7.0): 1.718 | Percent Growth ([2]; Log10 Concentration −7.0): 122% | Mean Optical Densities ([2]; Log10 Concentration −8.0): 1.626 | Percent Growth ([2]; Log10 Concentration −8.0): 110% | TGI (LOX IMVI (Melanoma)): 3.07E−06 | Mean Optical Densities (LOX IMVI (Melanoma); Log10 Concentration −4.0): 0.352 | Mean Optical Densities (LOX IMVI (Melanoma); Log10 Concentration −5.0): 0.176 | Percent Growth (LOX IMVI (Melanoma); Log10 Concentration −5.0): −50% | Mean Optical Densities (LOX IMVI (Melanoma); Log10 Concentration −6.0): 0.742 | Percent Growth (LOX IMVI (Melanoma); Log10 Concentration −6.0): 48% | Mean Optical Densities (LOX IMVI (Melanoma); Log10 Concentration −7.0): 0.974 | Percent Growth (LOX IMVI (Melanoma); Log10 Concentration −7.0): 76% | Mean Optical Densities (LOX IMVI (Melanoma); Log10 Concentration −8.0): 1.204 | Percent Growth (LOX IMVI (Melanoma); Log10 Concentration −8.0): 105% | TGI (MALME-3M (Melanoma)): 3.67E−06 | Mean Optical Densities (MALME-3M (Melanoma); Log10 Concentration −4.0): 0.290 | Mean Optical Densities (MALME-3M (Melanoma); Log10 Concentration −5.0): 0.218 | Mean Optical Densities (MALME-3M (Melanoma); Log10 Concentration −6.0): 1.102 | Mean Optical Densities (MALME-3M (Melanoma); Log10 Concentration −7.0): 1.128 | TGI (SK-MEL-28 (Melanoma)): 2.64E−06 | Mean Optical Densities (SK-MEL-28 (Melanoma); Log10 Concentration −4.0): 0.218 | Mean Optical Densities (SK-MEL-28 (Melanoma); Log10 Concentration −5.0): 0.071 | Percent Growth (SK-MEL-28 (Melanoma); Log10 Concentration −5.0): −87% | Mean Optical Densities (SK-MEL-28 (Melanoma); Log10 Concentration −6.0): 1.130 | Percent Growth (SK-MEL-28 (Melanoma); Log10 Concentration −6.0): 63% | Mean Optical Densities (SK-MEL-28 (Melanoma); Log10 Concentration −7.0): 1.320 | Percent Growth (SK-MEL-28 (Melanoma); Log10 Concentration −7.0): 83% | Mean Optical Densities (SK-MEL-28 (Melanoma); Log10 Concentration −8.0): 1.426 | Percent Growth (SK-MEL-28 (Melanoma); Log10 Concentration −8.0): 94%
